Experimental data taken from US20120190707A1, “SELECTIVE INHIBITORS OF AKT AND METHODS OF USING SAME” (priority 2008, published 2012).
Where “and” joins values, the source holds several entries; their conditions need not be identical. Equal entries are not always repeated. Entries after “also recorded” stand apart in the source; their conditions may differ. Where two headings read alike, the source gives them in different places.

Key:
[1] = molecular target: T1, Akt1 (Homo sapiens, UniProt P31749); assay: Akt1 inhibition, Z'-LYTE kit fluorescent-enzymatic assay; assay type: biochemical; settings: for Ki: 10 μM compound 1, 20 μM compound 2, 50 μM compound 3, increasing ATP, Lineweaver-Burk
Experimental: Here the top 4000 compounds out of 50000 docked compounds were selected using FlexX and Drugscore (BioSolvIT). The top 4000 docked structures were further evaluated and ranked according to Goldscore and Chemscore functions (CSCORE). A list of common 200 compounds was then selected among ranked top 700 compounds according to both scoring functions (FIG. 1B). […] The remaining 100 compounds were experimentally tested up to 30 μM against Akt1. The inhibitory activity was evaluated for the selected compounds by using Z'-LYTE™ kit assay provided by Invitrogen Corporation (19). […] Corning® 384-well low volume plates (20 μl) were used. The fluorescent-enzymatic assay has been performed following the protocol provided by Invitrogen Corporation, using a fluorescent plate reader (Victor2, Perkin-Elmer). […] C) Lineweaver-Burk Km and Km(app) evaluation for Akt1. Each measurement was performed in triplicate. […] The Ki and the Km(app) were calculated at fixed inhibitor concentrations, as reported in the text. All constant values were definitely evaluated by fitting the data to the Lineweaver-Burk plot; D) Akt1 inhibition assay using GSK-3 as a substrate. Comparison of compounds 1 and 2 (Table 1) with H89 at 10 μM. E) Dose response for compound 1. Akt (10 ng of recombinant enzyme) in 25 μl 1× kinase buffer (25 mM Tris, pH 7.5; 5 mM n-glycerol phosphate; 2 mM dithiothreitol; 0.1 mM Na3VO4; and 10 mM MgCl2), was mixed with 2.5 μl DMSO (1% stock) or MPA-D (100 μM in 1% DMSO). Samples were incubated on ice for 1.5 hours at which time 1 μg of GSK-3 fusion protein (Cell Signaling), which served as the substrate, was added followed by ATP (200 μM) to each reaction mixture. After the suspensions were incubated at 30° C. for 20 min, the reaction was terminated by the addition of 3×SDS sample buffer (187.5 mM Tris-HCl, pH 6.8; 6% SDS; 30% glycerol; 150 mM dithiothreitol; and 0.03% bromophenol blue). The samples were boiled for 5 min, and the proteins were separated on a 12% SDS polyacrylamide gel and subsequently transferred to a nitrocellulose membrane. Membranes were incubated with rabbit polyclonal anti-phospho-GSK-3α/β (Ser21/9) (Cell Signaling).
For these purposes, we initially determined the Km and the Vmax of the enzymatic reaction involving the peptide provided by the Z'-LYTE™ kit assay and Akt1 by varying the concentration of ATP. The above parameters appeared to be 7.9 μM and 0.0205 μmol min^−1 mg^−1, respectively. […] Because all our inhibitors affected the Km rather than the Vmax of the reaction (FIG. 2C), they can be truly considered ATP-competitive inhibitors of Akt1.

[2] = molecular target: T1, Akt1; assay: Akt1 inhibition assay using GSK-3 as a substrate (immuno-blotting with anti-phospho-GSK-3α/β); assay type: biochemical
Experimental: Here the top 4000 compounds out of 50000 docked compounds were selected using FlexX and Drugscore (BioSolvIT). The top 4000 docked structures were further evaluated and ranked according to Goldscore and Chemscore functions (CSCORE). A list of common 200 compounds was then selected among ranked top 700 compounds according to both scoring functions (FIG. 1B). […] The remaining 100 compounds were experimentally tested up to 30 μM against Akt1. The inhibitory activity was evaluated for the selected compounds by using Z'-LYTE™ kit assay provided by Invitrogen Corporation (19). […] Corning® 384-well low volume plates (20 μl) were used. The fluorescent-enzymatic assay has been performed following the protocol provided by Invitrogen Corporation, using a fluorescent plate reader (Victor2, Perkin-Elmer). […] C) Lineweaver-Burk Km and Km(app) evaluation for Akt1. Each measurement was performed in triplicate. […] The Ki and the Km(app) were calculated at fixed inhibitor concentrations, as reported in the text. All constant values were definitely evaluated by fitting the data to the Lineweaver-Burk plot; D) Akt1 inhibition assay using GSK-3 as a substrate. Comparison of compounds 1 and 2 (Table 1) with H89 at 10 μM. E) Dose response for compound 1. […]

[3] = FIG. 2 legend, read-out: IC50 value
[4] = Table 2, derivatives of Compound 1, read-out: IC50

T1 sequence (P31749 whole entry): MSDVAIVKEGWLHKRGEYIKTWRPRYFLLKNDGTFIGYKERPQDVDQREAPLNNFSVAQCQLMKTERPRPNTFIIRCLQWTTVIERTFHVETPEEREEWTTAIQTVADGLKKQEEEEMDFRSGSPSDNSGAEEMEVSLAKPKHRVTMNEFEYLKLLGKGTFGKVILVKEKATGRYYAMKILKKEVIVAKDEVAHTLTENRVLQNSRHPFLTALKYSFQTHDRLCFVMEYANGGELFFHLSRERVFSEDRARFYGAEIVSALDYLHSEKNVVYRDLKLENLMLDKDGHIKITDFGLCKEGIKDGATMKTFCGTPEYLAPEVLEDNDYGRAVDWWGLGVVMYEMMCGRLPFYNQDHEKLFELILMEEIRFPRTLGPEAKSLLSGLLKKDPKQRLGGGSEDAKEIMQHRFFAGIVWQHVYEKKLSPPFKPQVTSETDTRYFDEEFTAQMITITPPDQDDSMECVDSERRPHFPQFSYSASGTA

Structure (SMILES) | IC50 values (in words) [1] | Ki [1] [nM] | IC50 [1, 3] | Hill slope ([1]; IC50 curve, FIG. 2A) | IC50 ([1]; Table 1, read-out: IC50) [nM] | IC50 [1, 4] [nM] | inhibition of GSK-3 phosphorylation [2] | inhibitory activity against Akt1 kinase (in words) [1]
CC1=C(C#N)c2nc(N)c(C#N)c(C)c2/C1=C/c1ccc(-c2ccc(C(=O)O)c(Cl)c2)o1 [Compound 1] | low-micromolar range | 1100 | 2300 nM and 2600 nM | 1.1 | 2600 | 2600 | low micromolar range | –
O=C(O)c1cc(-c2ccc(C=C3C(=O)c4ccccc4C3=O)o2)ccc1O [Compound 3] | – | 20800 | 25100 nM | – | – | – | – | –
CC1=C(C#N)c2nc(N)c(C#N)c(C)c2C1=Cc1ccc(-c2ccc(C(=O)O)cc2)o1 [Compound 4] | – | – | – | – | – | – | – | appreciable inhibition in the micromolar range; also recorded: limited inhibitory activity
CC1=C(C#N)c2nc(N)c(C#N)c(C)c2C1=Cc1ccc(-c2cccc(C(=O)O)c2)o1 [Compound 5] | – | – | – | – | – | 60200 | – | appreciable inhibition in the micromolar range; also recorded: limited inhibitory activity
